Measured values taken from US4591601A, “Anticonvulsant dioxolane methane sulfamates” (McNeilab, Inc., priority 1985, dated 1986).

System: tonic extensor seizure
Test: maximal electroshock test (MES), block of tonic extensor seizure
Type: in vivo, mice (male albino, Swiss Webster)
Settings: Mus musculus, ip, 0.5 h; mice, i.p., tested 30 minutes after injection; 1b in aqueous solution, Examples 2 and 3 as suspensions with Tween 80 and water; probit analysis
Experimental: The compounds of formula (I) are useful as anticonvulsant agents. The anticonvulsant activity of the subject compounds was determined using a standard "maximal electroshock test" (MES). In this test, activity is indicated by a block of the tonic extensor seizure caused by application of an electric shock to mice via corneal electrodes, as described by Swinyard et al in J. Pharmacol. Exptl. Therap. 106, 319 (1952). A more recent description of current anticonvulsant drug screening is given in Swinyard et al in Epilepsia 19, 409 (1978). Non-fasted male albino mice of the Swiss Webster strain (Royal-Hart Laboratories, New Hampton, N.Y.) weighing 18-24 grams were used in this test. Six to eight groups of ten mice each were used per ED50 determination. The product of Example 1b was administered in aqueous solution while the compounds produced in Examples 2 and 3 were administered as suspensions prepared with Tween 80 and water. Testing was conducted at 30 minutes following intraperitoneal injection of the test compound. A group of ten mice injected with saline 10 ml/kg i.p. and tested 30 minutes later served as controls. ED50 's were calculated using a computerized probit analysis procedure.

In order of falling ED50:
1. CCCCCCCCCC1(C)OCC(COS(N)(=O)=O)O1 (stereo not drawn) [Example 2, (2-Methyl-2-nonyl-1,3-dioxolan-4-yl)methyl sulfamic acid ester Hydrate compound with 2-undecanone (10:1:2)]  319 mg/kg
2. NS(=O)(=O)OCC1COC2(CCCCC2)O1 (stereo not drawn) [Example 3, (1,4-Dioxaspiro[4.5]dec-2-yl)methyl Sulfamic acid ester]  169 mg/kg
3. CC1(C)OCC(COS(N)(=O)=O)O1 (stereo not drawn) [Example 1b, (2,2-Dimethyl-1,3-dioxolan-4-yl)methyl sulfamic acid ester]  105 mg/kg
